US11534448B2, “Use of canagliflozin in preparation of antitumor drug” (ZHEJIANG UNIVERSITY, priority 2019, dated 2022)

How the values were obtained:
Assay type in all cases: cell-based, human
[1] = system: osteosarcoma MG63 cells; assay: Killing effect of activated T cells on co-incubated tumor cells (crystal violet staining); settings: MG63 cells treated with canagliflozin 20 μM + IFNγ 10 ng/mL for 24 h, PD-L1 antibody drug as positive control, FIG. 4
Description: (§1) PBMC cells were isolated from human blood samples using Ficoll separation solution, and then stimulated with CD3 and CD28 for 3 days to activate T cells in PBMC, and in the meantime, interleukin-2 (IL-2, 50 U/uL) was administrated to maintain the growth of T cells. The activated T cells were co-incubated with the tumor cells that had been treated with canagliflozin (20 μM) and γ-interferon (IFNγ, 10 ng/mL) for 24 hours. A PD-L1 antibody drug was used as a positive control. The killing effect of T cells on tumor cells was investigated, and a crystal violet staining method was employed to investigate the killing effect of T cells on tumor cells.

[2] = system: non-small cell lung cancer H1299 cells; assay: as above; settings: H1299 cells treated with canagliflozin 20 μM + IFNγ 10 ng/mL for 24 h, PD-L1 antibody drug as positive control, FIG. 4
Description: as §1

[3] = system: PD-L1; assay: Flow cytometry of PD-L1 expression on cell surfaces; settings: canagliflozin 20 μM + IFNγ 10 ng/mL, 24 h, FIG. 2
Description: Two human tumor cell lines, non-small cell lung cancer H1299 cells and osteosarcoma MG63 cells, were selected and respectively inoculated in 6-well plates (1.0×10^6 cells/well), and incubated overnight in incubator at 37° C. with 5% CO2. On the next day, each plate was added with canagliflozin (20 μM) and γ-interferon (IFNγ, 10 ng/mL), and after 24 hours, the PD-L1 expressions on the cell surfaces were detected with flow cytometry.

[4] = system: PD-L1; assay: Western blotting of PD-L1 total protein expression in tumor cells; settings: canagliflozin 20 μM + IFNγ 10 ng/mL, 24 h, FIG. 1
Description: Multiple human tumor cells, non-small cell lung cancer H1299 cells and osteosarcoma MG63 cells, were selected and respectively inoculated in 6-well plates (1.0×10^6 cells/well), and incubated overnight in incubator at 37° C. with 5% CO2. On the next day, each plate was added with canagliflozin (20 μM) and γ-interferon (IFNγ, 10 ng/mL), and after 24 hours, the cells were collected and lysed to extract the proteins. The expression of PD-L1 in the cells were detected by Western blotting.

[5] = system: PD-L1; assay: PD-L1 protein stability (cycloheximide chase, Western blotting, gray-scale analysis); settings: H1299 cells; IFNγ 10 ng/mL 24 h, then CHX (10 g/mL) + canagliflozin 20 μM vs CHX alone; 0-12 h; FIG. 3
Description: The non-small cell lung cancer H1299 cells were inoculated in 6-well plates (1.0×10^6 cells/well), and incubated overnight in incubator at 37° C. with 5% CO2. On the next day, the plates were first added with γ-interferon (IFNγ, 10 ng/mL), and after 24 hours, a protein synthesis inhibitor cycloheximide (CHX, […]) or a co-administration group of CHX ([…])+canagliflozin (20 μM) was administrated simultaneously for these plates. After 0 h, 2 h, 4 h, 6 h, 8 h, and 12 h, respectively, the cells were collected to detect the change of the protein level of PD-L1 in the cells by Western blotting, and a gray-scale analysis was performed to plot a curve for investigating the protein stability.

[6] = non-small cell lung cancer H1299 cells

For `Cc1ccc([C@@H]2O[C@H](CO)[C@@H](O)[C@H](O)[C@H]2O)cc1Cc1ccc(-c2ccc(F)cc2)s1` [canagliflozin, (1S)-1,5-anhydro-1-C-[3-[[5-(4-fluorophenyl)-2-thienyl]methyl]-4-methylphenyl]-D-glucitol], the “killing effect of T cells on tumor cells” value [1] was “significantly enhanced the killing effect of T cells on tumor cells”, the “killing effect of T cells on tumor cells” value [2] was “significantly enhanced the killing effect of T cells on tumor cells” and the “PD-L1 protein expression on the cell surface” value [3, 6] was “significantly inhibited the PD-L1 protein expression on the tumor cell surfaces”. For the same molecule, the “PD-L1 protein expression on the cell surface” value ([3]; osteosarcoma MG63 cells) was “significantly inhibited the PD-L1 protein expression on the tumor cell surfaces”, the “PD-L1 total protein expression” value [4, 6] was “significantly inhibited the PD-L1 total protein expression” and the “PD-L1 total protein expression” value ([4]; osteosarcoma MG63 cells) was “significantly inhibited the PD-L1 total protein expression”. For the same molecule, the “degradation of the PD-L1 protein” value [5] was “significantly promoted the degradation of the PD-L1 protein”.
